According to PMC11374673, “Discovery of isoquinoline sulfonamides as allosteric gyrase inhibitors with activity against fluoroquinolone-resistant bacteria” (Nature Chemistry, 2024):
In brackets after ≈: the same amount, converted by molar mass. Several values for one entry are separate records, joined by “and”; a condition that tells them apart may be missing. Equal values may be shown once. Entries after “also recorded” stand apart in the source; their conditions may differ.

Assays:
K. pneumoniae ATCC 29665 = test: MIC by broth microdilution; format: cell-based, Klebsiella pneumoniae; conditions: Klebsiella pneumoniae, ATCC29665, broth microdilution; read-out: MIC K. pneumoniae ATCC 29665
Description: (§1) MIC was determined by broth microdilution. Single-colony cultures were grown to exponential phase (OD600 of 0.5) aerobically at 37 °C. In case of strains from the Keio collection, 50 µg ml^−1 kanamycin was supplemented to the media to ascertain a homogeneous population. The bacterial suspensions were diluted 100-fold in CAMHB and 50 µl was added to a twofold serial dilution series of test compounds (50 µl per well) in polypropylene 96-well microtitre plates to reach a volume of 100 µl. The plates were sealed with breathable membranes and incubated overnight at 37 °C with constant shaking (600 r.p.m.).

HEK293T = test: Cytotoxicity assay (MTT); format: cell-based, human; conditions: for MTT data (raw readout): HEK293T; for IC50: Homo sapiens, HEK-293T, 24 h, MTT
Description: (§2) HepG2 (ATCC HB-8065) and HEK293T (ATCC CRL-3216) cell lines were cultured at 37 °C and 7% CO2 in Dulbecco’s modified Eagle medium (Sigma-Aldrich, D6546) with GlutaMax, penicillin (100 µg ml^−1), streptomycin (100 µg ml^−1) and 10% fetal calf serum. Cells were passaged twice a week by first detaching using 0.05% trypsin in phosphate-buffered saline (PBS) and then diluting to appropriate confluence. Compound cytotoxicity was evaluated using the standard (3-(4,5-dimethylthiazol-2-yl)-2,5-diphenyltetrazolium bromide (MTT) assay protocol (MTT assay protocol for cell viability and proliferation, Merck) with slight changes. HepG2 and HEK293T cells were seeded at a density of 1.5 × 10^4 cells per well in a clear 96-well tissue culture treated plate in a final volume of 100 µl in Dulbecco’s modified Eagle medium, supplemented with fetal bovine serum (1%), GlutaMax and penicillin/streptomycin. Cells were incubated for 24 h at 37 °C, 7% CO2 to allow cells to attach to the plates. […] Incubation was done for 24 h at 37 °C, 7% CO2. After the incubation, MTT was added to each well at a final concentration of 0.40 mg ml^−1. The plates were then incubated for 2 h at 37 °C, 7% CO2. Medium was carefully removed via suction, and purple formazan crystals were resuspended in 100 µl DMSO. Absorbance was read at 570 nm using a Clariostar plate reader with MARS (V4.20). The data were then analysed with GraphPad Prism software. IC50 values were calculated using non-linear fitted curve with variable slope settings, with values adjusted for background (plotted absorbance (ABS)sample = (ABSsample – ABSbackground) / (ABSvehicle – ABSbackground)). Technical triplicates for each condition were used, along with biological duplicates.

HepG2 = test: Cytotoxicity assay (MTT); format: cell-based, human; conditions: for IC50: MTT, 24 h
Description: as §2

E. coli W3110 = test: MIC by broth microdilution; format: cell-based, Escherichia coli; conditions: for MIC: Escherichia coli, W3110, WT, broth microdilution, read-out: MIC E. coli W3110
Description: as §1

[1] = 0.023 uM, experiment n = 1, technical triplicates
[2] = 0.023 uM, experiment n = 2, technical triplicates
[3] = 0.068 uM, experiment n = 1, technical triplicates
[4] = 0.068 uM, experiment n = 2, technical triplicates
[5] = 0.21 uM, experiment n = 1, technical triplicates
[6] = 0.21 uM, experiment n = 2, technical triplicates
[7] = 0.62 uM, experiment n = 1, technical triplicates
[8] = 0.62 uM, experiment n = 2, technical triplicates
[9] = 1.85 uM, experiment n = 1, technical triplicates
[10] = 1.85 uM, experiment n = 2, technical triplicates
[11] = 5.6 uM, experiment n = 1, technical triplicates
[12] = 5.6 uM, experiment n = 2, technical triplicates
[13] = 16.7 uM, experiment n = 1, technical triplicates
[14] = 16.7 uM, experiment n = 2, technical triplicates
[15] = 50 uM, experiment n = 1, technical triplicates
[16] = 50 uM, experiment n = 2, technical triplicates
[17] = HepG2, 0.023 uM, experiment n = 1, technical triplicates
[18] = HepG2, 0.023 uM, experiment n = 2, technical triplicates
[19] = HepG2, 0.068 uM, experiment n = 1, technical triplicates
[20] = HepG2, 0.068 uM, experiment n = 2, technical triplicates
[21] = HepG2, 0.21 uM, experiment n = 1, technical triplicates
[22] = HepG2, 0.21 uM, experiment n = 2, technical triplicates
[23] = HepG2, 0.62 uM, experiment n = 1, technical triplicates
[24] = HepG2, 0.62 uM, experiment n = 2, technical triplicates
[25] = HepG2, 1.85 uM, experiment n = 1, technical triplicates
[26] = HepG2, 1.85 uM, experiment n = 2, technical triplicates
[27] = HepG2, 5.6 uM, experiment n = 1, technical triplicates
[28] = HepG2, 5.6 uM, experiment n = 2, technical triplicates
[29] = HepG2, 16.7 uM, experiment n = 1, technical triplicates
[30] = HepG2, 16.7 uM, experiment n = 2, technical triplicates
[31] = HepG2, 50 uM, experiment n = 1, technical triplicates
[32] = HepG2, 50 uM, experiment n = 2, technical triplicates

| SMILES | MIC (K. pneumoniae ATCC 29665) [µM] | MTT data (raw readout) (HEK293T; [1]) | MTT data (raw readout) (HEK293T; [2]) | MTT data (raw readout) (HEK293T; [3]) | MTT data (raw readout) (HEK293T; [4]) | MTT data (raw readout) (HEK293T; [5]) | MTT data (raw readout) (HEK293T; [6]) | MTT data (raw readout) (HEK293T; [7]) | MTT data (raw readout) (HEK293T; [8]) | MTT data (raw readout) (HEK293T; [9]) | MTT data (raw readout) (HEK293T; [10]) | MTT data (raw readout) (HEK293T; [11]) | MTT data (raw readout) (HEK293T; [12]) | MTT data (raw readout) (HEK293T; [13]) | MTT data (raw readout) (HEK293T; [14]) | IC50 (HEK293T) [µM] | MTT data (raw readout) (HepG2; [18]) | MTT data (raw readout) (HepG2; [19]) | MTT data (raw readout) (HepG2; [20]) | MTT data (raw readout) (HepG2; [21]) | other results |
| --- | --- | --- | --- | --- | --- | --- | --- | --- | --- | --- | --- | --- | --- | --- | --- | --- | --- | --- | --- | --- | --- |
| O=S(=O)(NC[C@@H]1CC[C@H](c2ccc(-c3ccccc3)cc2)N1)c1cccc2cnccc12 [Compound 100] | 6.25 (≈ 2.77 µg/mL) | 1.435 and 1.455 and 1.506 | 1.022 and 0.970 and 0.963 | 1.260 and 1.443 and 1.546 | 1.032 and 0.974 and 0.962 | 1.440 and 1.428 and 1.427 | 1.023 and 0.943 and 0.880 | 1.304 and 1.414 and 1.203 | 0.795 and 0.796 and 0.802 | 0.892 and 0.934 and 1.008 | 0.653 and 0.625 and 0.564 | 0.787 and 0.844 and 0.842 | 0.528 and 0.470 and 0.496 | 0.654 and 0.620 and 0.622 | 0.433 and 0.475 and 0.464 | 8.1 | 0.317 and 0.327 and 0.342 | 0.444 and 0.395 and 0.393 | 0.444 and 0.405 and 0.418 | 0.321 and 0.295 and 0.307 | cytotoxicity (HEK293T; HEK293T and HepG2): substantial cytotoxicity; MTT data (raw readout) (HEK293T; [15]): 0.419 and 0.461 and 0.443; MTT data (raw readout) (HEK293T; [16]): 0.271 and 0.254 and 0.252; MTT data (raw readout) (HepG2; [17]): 0.333 and 0.336 and 0.361; MTT data (raw readout) (HepG2; [22]): 0.315 and 0.286 and 0.293; MTT data (raw readout) (HepG2; [23]): 0.316 and 0.335 and 0.382; MTT data (raw readout) (HepG2; [24]): 0.313 and 0.317 and 0.366; MTT data (raw readout) (HepG2; [25]): 0.377 and 0.346 and 0.368; MTT data (raw readout) (HepG2; [26]): 0.307 and 0.264 and 0.317; MTT data (raw readout) (HepG2; [27]): 0.341 and 0.333 and 0.345; MTT data (raw readout) (HepG2; [28]): 0.271 and 0.300 and 0.310; MTT data (raw readout) (HepG2; [29]): 0.345 and 0.363 and 0.356; MTT data (raw readout) (HepG2; [30]): 0.277 and 0.308 and 0.357; MTT data (raw readout) (HepG2; [31]): 0.236 and 0.222 and 0.339; MTT data (raw readout) (HepG2; [32]): 0.109 and 0.122 and 0.118; IC50 (HepG2; Homo sapiens, HepG2, 24 h): 37 µM; MIC (E. coli W3110): 1.6 µM (≈ 0.71 µg/mL) |
| O=S(=O)(NCCNCc1ccc(-c2ccc(F)nc2)c(F)c1)c1cccc2cnccc12 [Compound 89] | 12.5 (≈ 5.68 µg/mL) | 1.460 and 1.327 and 1.155 | 1.578 and 1.464 and 1.567 | 1.383 and 1.285 and 1.405 | 1.657 and 1.634 and 1.543 | 1.422 and 1.388 and 1.379 | 1.511 and 1.515 and 1.445 | 1.302 and 1.254 and 1.287 | 1.280 and 1.339 and 1.417 | 1.134 and 1.184 and 1.193 | 1.303 and 1.294 and 1.289 | 0.891 and 0.915 and 0.826 | 0.987 and 0.926 and 0.889 | 0.240 and 0.299 and 0.212 | 0.285 and 0.310 and 0.251 | 8.9 | 0.940 and 0.892 and 0.823 | 1.059 and 1.047 and 0.930 | 0.912 and 0.982 and 0.829 | 1.201 and 1.007 and 1.154 | MTT data (raw readout) (HepG2; [17]): 1.211 and 1.032 and 1.095; MTT data (raw readout) (HepG2; [22]): 0.862 and 0.878 and 0.892; MTT data (raw readout) (HepG2; [23]): 0.908 and 1.012 and 1.031; MTT data (raw readout) (HepG2; [24]): 0.861 and 0.862 and 0.848; MTT data (raw readout) (HepG2; [25]): 0.964 and 0.831 and 0.983; MTT data (raw readout) (HepG2; [26]): 0.918 and 0.866 and 0.845; MTT data (raw readout) (HepG2; [27]): 0.840 and 0.880 and 0.890; MTT data (raw readout) (HepG2; [28]): 0.798 and 0.838 and 0.803; IC50 (HepG2; Homo sapiens, HepG2, 24 h): 6.8 µM; MIC (E. coli W3110): 6.25 µM (≈ 2.84 µg/mL) |
| O=S(=O)(NC[C@@H]1CC[C@H](c2ccc(-c3ccc(F)nc3)cc2)N1)c1cccc2cnccc12 [Compound 96] | 12.5 (≈ 5.78 µg/mL) | 1.310 and 1.426 and 1.382 | 1.005 and 1.055 and 0.974 | 1.261 and 1.196 and 1.228 | 1.060 and 1.105 and 1.114 | 1.460 and 1.332 and 1.292 | 0.944 and 1.021 and 1.022 | 1.285 and 1.264 and 1.255 | 0.998 and 0.945 and 0.948 | 1.253 and 1.307 and 1.121 | 0.889 and 0.884 and 0.825 | 0.992 and 0.906 and 1.276 | 0.770 and 0.750 and 0.744 | 0.263 and 0.250 and 0.238 | 0.552 and 0.449 and 0.479 | 22 | 0.335 and 0.356 and 0.336 | 0.697 and 0.415 and 0.444 | 0.314 and 0.274 and 0.280 | 0.410 and 0.391 and 0.401 | MTT data (raw readout) (HEK293T; [15]): 0.081 and 0.067 and 0.062; MTT data (raw readout) (HEK293T; [16]): 0.360 and 0.319 and 0.325; MTT data (raw readout) (HepG2; [22]): 0.286 and 0.328 and 0.321; MTT data (raw readout) (HepG2; [23]): 0.318 and 0.339 and 0.325; MTT data (raw readout) (HepG2; [24]): 0.277 and 0.335 and 0.337; MTT data (raw readout) (HepG2; [25]): 0.449 and 0.459 and 0.475; MTT data (raw readout) (HepG2; [26]): 0.324 and 0.290 and 0.321; MTT data (raw readout) (HepG2; [27]): 0.376 and 0.380 and 0.428; MTT data (raw readout) (HepG2; [28]): 0.305 and 0.314 and 0.321; MTT data (raw readout) (HepG2; [29]): 0.356 and 0.341 and 0.324; MTT data (raw readout) (HepG2; [30]): 0.281 and 0.283 and 0.288; MTT data (raw readout) (HepG2; [31]): 0.302 and 0.347 and 0.370; MTT data (raw readout) (HepG2; [32]): 0.208 and 0.219 and 0.229; IC50 (HepG2; Homo sapiens, HepG2, 24 h): > 100 µM; IC50 (HepG2): > 50 µM; MIC (E. coli W3110): 3.1 µM (≈ 1.43 µg/mL); antimicrobial activity (E. coli W3110; relative to parent compound): twofold increase in potency; also recorded: active |
